Results: the supplement of paper PMC6206229
Values after ≈ are worked out from the molar mass of the structure shown.

Assays:
[1] = test system: Staphylococcus aureus ATCC 29213 (MSSA); assay: minimum inhibitory concentration; extreme values may be limits of the assay
Outline: (§1)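 The minimum inhibitory concentration was defined as the lowest concentration whose well remained blue rather than becoming pink. It was measured against methicillin-susceptible and methicillin-resistant Staphylococcus aureus by broth microdilution in 96-well plates according to CLSI guidance, with compounds at 0 to 100 µM incubated for 24 h at 37°C before 30 µl of 0.015% resazurin was added for 2–4 h. Each plate included positive controls.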

[2] = test system: Staphylococcus aureus ATCC 700699 (MRSA); assay: as above
Outline: as §1

SMILES	minimum inhibitory concentration [1] [µM]	minimum inhibitory concentration [2] [µM]
CCn1ncc2c(NC3CCOCC3)c(CNC(=O)c3ccnn3C)c(C)nc21	> 50	> 50
OCc1ccc(-c2cncc(Nc3cccc(Cl)c3)c2)cc1	> 50	> 50
CC(C)NCC(=O)Nc1cccc(C(=O)Nc2cccc(C(F)(F)F)c2)c1	> 50	> 50
CCC(C)NC(=O)c1ccc(NC(=O)C2(c3ccccc3)CCCC2)cc1 (stereo not given)	> 50	> 50
CNCCC(Oc1ccc(C(F)(F)F)cc1)c1ccccc1 (stereo not given)	> 50	> 50
Nc1ncnc2c1c(Cc1cccc3ccccc13)nn2CC1CCNCC1	> 50	> 50
Cc1ccccc1CN1CCC(O)(c2ccc(Cl)c(C(F)(F)F)c2)CC1	> 50	> 50
NC(=O)c1cc(Br)ccc1OCCOc1ccccc1	> 50	> 50
CC[C@@H]([C@H](C)O)n1ncn(-c2ccc(N3CCN(c4ccc(OC[C@@H]5CO[C@@](Cn6cncn6)(c6ccc(F)cc6F)C5)cc4)CC3)cc2)c1=O	> 50	> 50
Cc1nn(Cc2ccccc2)c(Cl)c1C(=O)NC1CCCCCC1	> 50	> 50
CNc1nnc(Sc2cnn(-c3ccccc3)c(=O)c2Cl)s1	> 50	> 50
CN1CCCN(C(c2ccccc2)c2ccc(Cl)cc2)CC1 (stereo not given)	> 50	> 50
CCC(=O)Nc1ccccc1C(=O)Nc1ccccn1	> 50	> 50
CCCCc1ccc(NC(=O)Nc2ccc(O[C@H]3CCCC[C@@H]3N(C)c3ccccc3)c(F)c2)cc1	> 50	> 50
C[C@H]1COc2c(N3CCN(C)CC3)c(F)cc3c(=O)c(C(=O)O)cn1c23	0.78 (≈ 0.282 µg/mL)	50 (≈ 18.1 µg/mL)
Cc1ccc(S(=O)(=O)Nc2ccc(CN3CCN(C(=O)c4cccc(C#N)c4)CC3)cc2)cc1	> 50	> 50
NCC(c1cccs1)S(=O)(=O)c1ccccc1 (stereo not given)	> 50	> 50
CC(C(=O)Nc1ccc2oc(-c3ccncc3)nc2c1)c1ccccc1 (stereo not given)	> 50	> 50
Cc1[nH]c2cc(F)cc(F)c2c(=O)c1-c1ccc(Oc2ccc(OC(F)(F)F)cc2)cc1	> 50	> 50
CS(=O)(=O)N1CCC(Cn2nc(Cc3cccc4ccccc34)c3c(N)ncnc32)CC1	> 50	> 50
CC(C)(C)OC(=O)N1CCN(c2cc(-c3ccc(Oc4ccccc4)cc3)n[nH]2)CC1	> 50	> 50
CC(C)n1nc(-c2cc3c(Cl)cccc3[nH]2)c2c(N)ncnc21	> 50	> 50
COc1ccccc1C(C)NCC(=O)Nc1cc(C(F)(F)F)ccc1Cl (stereo not given)	> 50	> 50
CCc1ccccc1-n1c(C)cn2c3c(=O)n(C(C(=O)OC)C(C)C)c(=O)n(C)c3nc12 (stereo not given)	> 50	> 50

SMILES	minimum inhibitory concentration [1] [µM]	minimum inhibitory concentration [2] [µM]
Cc1cc(C)n2nc(C(=O)Nc3cc(C(F)(F)F)ccc3N3CCOCC3)nc2n1	> 50	> 50
Cc1noc(C)c1COc1cccc(C(=O)N=c2[nH]cccc2C)c1	> 50	> 50
CC(C)(C(=O)Nc1ccc(F)cc1)n1cc(-c2ccccc2F)cn1	> 50	> 50
O=C(NC1CC1)c1ccc(N2CCC(Cc3ccccc3)CC2)nc1	> 50	> 50
CCCn1c(NC(=O)c2ccc3ccccc3n2)nc2ccccc21	> 50	> 50
CCOc1ccc(-c2nc(NC(=O)CS(=O)(=O)c3ccccc3)sc2C)cc1	> 50	> 50
CCN(CC)S(=O)(=O)c1ccc(C(=O)Nc2cc(C)nn2-c2nc(C)c(C)c(=O)[nH]2)cc1	50 (≈ 22.9 µg/mL)	50 (≈ 22.9 µg/mL)
CC1=Nc2ccc(Cl)cc2C(O)(c2ccc(C)cc2)N1CCN1CCCCC1 (stereo not given)	> 50	> 50
CCCS(=O)(=O)N1CCC(CO)(Cc2ccccc2C(F)(F)F)CC1	> 50	> 50
COc1cc(OC)cc(C(=O)NCC2Cc3cc(Cl)cc(-c4ccncc4)c3O2)c1 (stereo not given)	> 50	> 50
O=C(NCc1ccoc1)N1CCN(Cc2ccc3c(c2)OCO3)CC1	> 50	> 50
N=C(N)c1ccc(-c2cc(-c3ccccc3)on2)cc1	> 50	> 50
COc1cccc(-c2cc3c(Nc4cccnc4)nccc3[nH]2)c1	> 50	> 50
CCC(NC(=O)c1ccccc1NC(=O)c1ccc(C)cc1)C(=O)OC (stereo not given)	> 50	> 50
O=C(c1ccco1)N(CCCn1ccnc1)c1nc2c(Cl)cccc2s1	> 50	> 50
CNc1snc(C)c1C(=O)NCCOc1ccc(OC)cc1	> 50	> 50
O=C1N(Cc2cc3ccccc3s2)CC2CN(Cc3ccccc3)CCN12 (stereo not given)	> 50	> 50
CCCn1nnc(NC(=O)COc2ccc(C3CCCCC3)cc2)n1	> 50	> 50
COc1ccc(S(=O)(=O)Nc2ccc(CN3CCN(C(=O)c4cccc(C#N)c4)CC3)cc2)cc1	> 50	> 50
O=C(Nc1cccc(Cl)c1)c1cnc(N2CCN(c3ccncc3)CC2)c(Cl)c1	> 50	> 50
COc1cncc(-c2cncc(N3CCN(c4ccncc4)CC3)n2)c1	> 50	> 50
O=C(Nc1nc(-c2ccccn2)cs1)C1CC1c1ccccc1F (stereo not given)	> 50	> 50
COc1ccc(N(CCc2cccc(C)n2)C(C)=O)cc1	> 50	> 50
Cc1cc(NC(=O)c2ccc(S(=O)(=O)N(Cc3ccccc3)C(C)C)cc2)no1	> 50	> 50

SMILES	minimum inhibitory concentration [1] [µM]	minimum inhibitory concentration [2] [µM]
CC[C@@H](CO)NCCN[C@@H](CC)CO	> 50	> 50
FC(F)(F)c1ccc(N(c2cccnc2)C2CCN(c3ccc(C(F)(F)F)cn3)CC2)cc1	> 50	> 50
O=C(NC1CC1)c1ccc(N2CCOc3ccc(Cl)cc32)s1	> 50	> 50
Clc1ccc(CN2CCN(C3=NCCN3)CC2)cc1Cl	> 50	> 50
CCc1nn(C)c(C(=O)NCc2ccc(Oc3ccc(C)cc3)cc2)c1Cl	> 50	> 50
COc1ccc(Cl)cc1NC(=O)CN(C)C(=O)c1cnn(-c2ccccc2)n1	> 50	> 50
CCOc1ccccc1C(=O)Nc1cccc(-c2nc3ncccn3c2C)c1	> 50	> 50
Nc1ncnc2[nH]nc(Cc3cccc4ccccc34)c12	> 50	> 50
CNC(=O)C1Cc2c([nH]c3cc(Cl)ccc23)C2(CCN(CCc3ccccc3)CC2)N1 (stereo not given)	> 50	> 50
COc1cc(Br)cc2cc(C(=O)Nc3cccc(C(F)(F)F)c3)c(=O)oc12	> 50	> 50
COc1ccc(-c2cnc3ccc(N4CCCC4)nn23)cc1OC	> 50	> 50
Cc1nnc(NC(=O)c2cn(-c3ccccc3)nc2-c2ccccc2C)o1	> 50	> 50
O=S(=O)(c1ccc(Cl)cc1)N1CCN(C(=S)NCc2ccco2)CC1	> 50	> 50
CN(C)c1cc(NC(=O)Nc2ccccc2)c2ccccc2n1	> 50	> 50
Clc1ccc(CCNc2cc(-c3ccccc3)nc3ncnn23)cc1	> 50	> 50
Cn1ccnc1CNCCS(=O)(=O)c1cccc(Nc2ccc(-c3cccc(F)c3)cn2)c1	> 50	> 50
COC(=O)c1ccc(F)cc1NS(=O)(=O)c1cccc(-c2cnn(Cc3ccccc3)c2)c1	> 50	> 50
CCCCN(CCCC)c1c(C#N)cc(S(=O)(=O)Nc2ccccc2)cc1C#N	> 50	> 50
Nc1nc(N)c2c3c(sc2n1)CN(Cc1ccccc1)CC3	> 50	> 50
CNC1C(OC2C(OC3C(O)C(O)C(N=C(N)N)C(O)C3N=C(N)N)OC(C)C2(O)C=O)OC(CO)C(O)C1O (stereo not given)	> 50	> 50
Cc1ccc(S(=O)(=O)n2cc(-c3ccnc(N)c3)c3cc(Br)cnc32)cc1	> 50	> 50
CCCCS(=O)(=O)Nc1ccc2cnn(C)c2c1	> 50	> 50
